# Patent US20260262643A1, “HERBICIDAL BENZOXAZINES” (FMC CORPORATION, priority 2022, published 2026)
# Legend:
# wheat [1] = assay: Test C preemergence; format: in vivo, Triticum aestivum; settings: 0 to 100 scale (0 no effect, 100 complete control); for Wheat plant response rating: preemergence
# Summary of the method: (§1)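 Seeds in loam–sand blend received preemergence directed soil spray of test chemicals in non-phytotoxic solvent with surfactant; postemergence treatment was applied at one- to two-leaf stage (2–10 cm). After 10 days in greenhouse, injury rated visually versus untreated controls, 0 (no effect) to 100 (complete control).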
# oat, wild [2] = assay: Test C preemergence; format: in vivo, Avena fatua; settings: 0 to 100 scale (0 no effect, 100 complete control); for Oat, Wild plant response rating: preemergence
# Summary of the method: as §1
# rice = assay: Test D flooded paddy test; format: in vivo, Oryza sativa; settings: 250 g ai/ha, applied to paddy water, visual rating after 13 to 14 days, scale 0 to 100 (0 no effect, 100 complete control)
# Summary of the method: (§2)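 Plants grown to the 2-leaf stage; pots flooded to 3 cm above soil at treatment and held at that depth throughout. Test compounds applied directly to the paddy water. After 13 to 14 days in a greenhouse, response was rated visually versus controls on a 0 (no effect) to 100 (complete control) scale.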
# horseweed = assay: Test C postemergence; format: in vivo, Erigeron canadensis; settings: 10 days
# Summary of the method: as §1
# galium = assay: Test C postemergence; format: in vivo, Galium aparine; settings: 10 days
# Summary of the method: as §1
# soybean [3] = assay: Test C preemergence; format: in vivo, Glycine max; settings: 0 to 100 scale (0 no effect, 100 complete control); for Soybean plant response rating: preemergence
# Summary of the method: as §1
# kochia [4] = assay: Test C preemergence; format: in vivo, Bassia scoparia; settings: 0 to 100 scale (0 no effect, 100 complete control); for Kochia plant response rating: preemergence
# Summary of the method: as §1
# green foxtail [5] = assay: Test C postemergence; format: in vivo, Setaria viridis; settings: 10 days
# Summary of the method: as §1
# soybean [6] = assay: Test C postemergence; format: in vivo, Glycine max; settings: 10 days
# Summary of the method: as §1
# ragweed [7] = assay: Test C preemergence; format: in vivo, Ambrosia artemisiifolia; settings: 0 to 100 scale (0 no effect, 100 complete control); for Ragweed plant response rating: preemergence
# Summary of the method: as §1
# blackgrass [8] = assay: Test C postemergence; format: in vivo, Alopecurus myosuroides; settings: 10 days
# Summary of the method: as §1
# ryegrass, Italian [9] = assay: Test C postemergence; format: in vivo, Lolium multiflorum; settings: 10 days
# Summary of the method: as §1
# corn [10] = assay: Test C preemergence; format: in vivo, Zea mays; settings: 0 to 100 scale (0 no effect, 100 complete control); for Corn plant response rating: preemergence
# Summary of the method: as §1
# sedge, umbrella = assay: Test D flooded paddy test; format: in vivo, Cyperus difformis; settings: 250 g ai/ha, applied to paddy water, visual rating after 13 to 14 days, scale 0 to 100 (0 no effect, 100 complete control)
# Summary of the method: as §2
# ryegrass, Italian [11] = assay: Test C preemergence; format: in vivo, Lolium multiflorum; settings: 0 to 100 scale (0 no effect, 100 complete control); for Ryegrass, Italian plant response rating: preemergence
# Summary of the method: as §1
# ducksalad = assay: Test D flooded paddy test; format: in vivo, Heteranthera limosa; settings: 250 g ai/ha, applied to paddy water, visual rating after 13 to 14 days, scale 0 to 100 (0 no effect, 100 complete control)
# Summary of the method: as §2
# ragweed [12] = assay: Test C postemergence; format: in vivo, Ambrosia artemisiifolia; settings: 10 days
# Summary of the method: as §1
# barnyardgrass [13] = assay: Test C postemergence; format: in vivo, Echinochloa crusgalli; settings: 10 days
# Summary of the method: as §1
# kochia [14] = assay: Test C postemergence; format: in vivo, Bassia scoparia; settings: 10 days
# Summary of the method: as §1
# barnyardgrass [15] = assay: Test D flooded paddy test; format: in vivo, Echinochloa crus-galli; settings: 250 g ai/ha, applied to paddy water, visual rating after 13 to 14 days, scale 0 to 100 (0 no effect, 100 complete control)
# Summary of the method: as §2
# pigweed, palmer [16] = assay: Test C postemergence; format: in vivo, Amaranthus palmeri; settings: 10 days
# Summary of the method: as §1
# corn [17] = assay: Test C postemergence; format: in vivo, Zea mays; settings: 10 days
# Summary of the method: as §1
# green foxtail [18] = assay: Test C preemergence; format: in vivo, Setaria viridis; settings: 0 to 100 scale (0 no effect, 100 complete control); for Foxtail, Green plant response rating: preemergence
# Summary of the method: as §1
# barnyardgrass [19] = assay: Test C preemergence; format: in vivo, Echinochloa crusgalli; settings: 0 to 100 scale (0 no effect, 100 complete control); for Barnyardgrass plant response rating: preemergence
# Summary of the method: as §1
# oat, wild [20] = assay: Test C postemergence; format: in vivo, Avena fatua; settings: 10 days
# Summary of the method: as §1
# wheat [21] = assay: Test C postemergence; format: in vivo, Triticum aestivum; settings: 10 days
# Summary of the method: as §1
# pigweed, palmer [22] = assay: Test C preemergence; format: in vivo, Amaranthus palmeri; settings: 0 to 100 scale (0 no effect, 100 complete control); for Pigweed, Palmer plant response rating: preemergence
# Summary of the method: as §1
# blackgrass [23] = assay: Test C preemergence; format: in vivo, Alopecurus myosuroides; settings: 0 to 100 scale (0 no effect, 100 complete control); for Blackgrass plant response rating: preemergence
# Summary of the method: as §1
# [24] = Preemergence, 500 g ai/ha, visual rating after 10 days
# [25] = 125 g ai/ha, postemergence, 0 to 100 scale, 0 no effect, 100 complete control
# [26] = Postemergence, 500 g ai/ha, visual 0 to 100 scale (0 no effect, 100 complete control)
# [27] = 500 g ai/ha, postemergence, 0 to 100 scale (0 no effect, 100 complete control)
# [28] = Postemergence, 125 g ai/ha, 0 to 100 scale (0 no effect, 100 complete control)
smiles,measurement,setting,value
COc1ccc(-n2cnc(C(C)C)n2)cc1C(=O)N1C[C@H](C)Oc2c(C)cccc21 [Compound 210],"Plant response rating, Wheat",wheat [1]; [24],90
same,Wheat plant response rating,"wheat [1]; Test C, 125 g ai/ha",90
same,"Plant response rating, Oat, Wild","oat, wild [2]; [24]",90
same,"Oat, Wild plant response rating","oat, wild [2]; Test C, 125 g ai/ha",60
same,"Plant response rating, Rice (Flood)",rice,15
same,"Plant response rating, Horseweed",horseweed; [25],80
same,"Plant response rating, Horseweed",horseweed; [26],80
same,"Plant response rating, Galium",galium; [25],100
same,"Plant response rating, Galium",galium; [26],100
same,"Plant response rating, Soybean",soybean [3]; [24],100
same,Soybean plant response rating,"soybean [3]; Test C, 125 g ai/ha",90
same,"Plant response rating, Kochia",kochia [4]; [24],100
same,Kochia plant response rating,"kochia [4]; Test C, 125 g ai/ha",90
same,"Plant response rating, Foxtail, Green",green foxtail [5]; [25],90
same,"Plant response rating, Foxtail, Green",green foxtail [5]; [26],90
same,"Plant response rating, Soybean",soybean [6]; [25],0
same,"Plant response rating, Soybean",soybean [6]; [26],10
same,"Plant response rating, Ragweed",ragweed [7]; [24],80
same,Ragweed plant response rating,"ragweed [7]; Test C, 125 g ai/ha",30
same,"Plant response rating, Blackgrass",blackgrass [8]; [25],90
same,"Plant response rating, Blackgrass",blackgrass [8]; [26],90
same,"Plant response rating, Ryegrass, Italian","ryegrass, Italian [9]; [25]",60
same,"Plant response rating, Ryegrass, Italian","ryegrass, Italian [9]; [26]",90
same,"Plant response rating, Corn",corn [10]; [24],60
same,Corn plant response rating,"corn [10]; Test C, 125 g ai/ha",30
same,"Plant response rating, Sedge, Umbrella (Flood)","sedge, umbrella",100
same,"Plant response rating, Ryegrass, Italian","ryegrass, Italian [11]; [24]",100
same,"Ryegrass, Italian plant response rating","ryegrass, Italian [11]; Test C, 125 g ai/ha",100
same,"Plant response rating, Ducksalad (Flood)",ducksalad,85
same,"Plant response rating, Ragweed",ragweed [12]; [25],60
same,"Plant response rating, Ragweed",ragweed [12]; [26],80
same,"Plant response rating, Barnyardgrass",barnyardgrass [13]; [25],50
same,"Plant response rating, Barnyardgrass",barnyardgrass [13]; [26],100
same,"Plant response rating, Kochia",kochia [14]; [25],70
same,"Plant response rating, Kochia",kochia [14]; [26],90
same,"Plant response rating, Barnyardgrass (Flood)",barnyardgrass [15],20
same,"Plant response rating, Pigweed, Palmer","pigweed, palmer [16]; [25]",90
same,"Plant response rating, Pigweed, Palmer","pigweed, palmer [16]; [26]",100
same,"Plant response rating, Corn",corn [17]; [25],80
same,"Plant response rating, Corn",corn [17]; [26],90
same,"Plant response rating, Foxtail, Green",green foxtail [18]; [24],100
same,"Foxtail, Green plant response rating","green foxtail [18]; Test C, 125 g ai/ha",100
same,"Plant response rating, Barnyardgrass",barnyardgrass [19]; [24],100
same,Barnyardgrass plant response rating,"barnyardgrass [19]; Test C, 125 g ai/ha",100
same,"Plant response rating, Oat, Wild","oat, wild [20]; [25]",80
same,"Plant response rating, Oat, Wild","oat, wild [20]; [26]",80
same,"Plant response rating, Wheat",wheat [21]; [25],50
same,"Plant response rating, Wheat",wheat [21]; [26],90
same,"Plant response rating, Pigweed, Palmer","pigweed, palmer [22]; [24]",100
same,"Pigweed, Palmer plant response rating","pigweed, palmer [22]; Test C, 125 g ai/ha",100
same,"Plant response rating, Blackgrass",blackgrass [23]; [24],100
same,Blackgrass plant response rating,"blackgrass [23]; Test C, 125 g ai/ha",80
COC(=O)c1ncn(-c2ccc(C)c(C(=O)N3C[C@H](C)Oc4c(Cl)cccc43)c2)n1 [Compound 315],Wheat plant response rating,wheat [1]; 500 g ai/ha,30
same,Wheat plant response rating,"wheat [1]; Test C, 125 g ai/ha",0
same,"Oat, Wild plant response rating","oat, wild [2]; 500 g ai/ha",60
same,"Oat, Wild plant response rating","oat, wild [2]; Test C, 125 g ai/ha",0
same,"Plant response rating, Rice (Flood)",rice,10
same,"Plant response rating, Horseweed",horseweed; [27],30
same,"Plant response rating, Horseweed",horseweed; [28],0
same,"Plant response rating, Galium",galium; [27],70
same,"Plant response rating, Galium",galium; [28],70
same,Soybean plant response rating,soybean [3]; 500 g ai/ha,0
same,Soybean plant response rating,"soybean [3]; Test C, 125 g ai/ha",0
same,Kochia plant response rating,kochia [4]; 500 g ai/ha,0
same,Kochia plant response rating,"kochia [4]; Test C, 125 g ai/ha",0
same,"Plant response rating, Foxtail, Green",green foxtail [5]; [27],90
same,"Plant response rating, Foxtail, Green",green foxtail [5]; [28],80
same,"Plant response rating, Soybean",soybean [6]; [27],100
same,"Plant response rating, Soybean",soybean [6]; [28],70
same,Ragweed plant response rating,ragweed [7]; 500 g ai/ha,30
same,Ragweed plant response rating,"ragweed [7]; Test C, 125 g ai/ha",0
same,"Plant response rating, Blackgrass",blackgrass [8]; [27],90
same,"Plant response rating, Blackgrass",blackgrass [8]; [28],70
same,"Plant response rating, Ryegrass, Italian","ryegrass, Italian [9]; [27]",80
same,"Plant response rating, Ryegrass, Italian","ryegrass, Italian [9]; [28]",60
same,Corn plant response rating,corn [10]; 500 g ai/ha,0
same,Corn plant response rating,"corn [10]; Test C, 125 g ai/ha",0
same,"Plant response rating, Sedge, Umbrella (Flood)","sedge, umbrella",60
same,"Ryegrass, Italian plant response rating","ryegrass, Italian [11]; 500 g ai/ha",90
same,"Ryegrass, Italian plant response rating","ryegrass, Italian [11]; Test C, 125 g ai/ha",40
same,"Plant response rating, Ducksalad (Flood)",ducksalad,85
same,"Plant response rating, Ragweed",ragweed [12]; [27],70
same,"Plant response rating, Ragweed",ragweed [12]; [28],70
same,"Plant response rating, Barnyardgrass",barnyardgrass [13]; [27],80
same,"Plant response rating, Barnyardgrass",barnyardgrass [13]; [28],60
same,"Plant response rating, Kochia",kochia [14]; [27],50
same,"Plant response rating, Kochia",kochia [14]; [28],40
same,"Plant response rating, Barnyardgrass (Flood)",barnyardgrass [15],15
same,"Plant response rating, Pigweed, Palmer","pigweed, palmer [16]; [27]",100
same,"Plant response rating, Pigweed, Palmer","pigweed, palmer [16]; [28]",80
same,"Plant response rating, Corn",corn [17]; [27],40
same,"Plant response rating, Corn",corn [17]; [28],30
same,"Foxtail, Green plant response rating",green foxtail [18]; 500 g ai/ha,90
same,"Foxtail, Green plant response rating","green foxtail [18]; Test C, 125 g ai/ha",30
same,Barnyardgrass plant response rating,barnyardgrass [19]; 500 g ai/ha,90
same,Barnyardgrass plant response rating,"barnyardgrass [19]; Test C, 125 g ai/ha",0
same,"Plant response rating, Oat, Wild","oat, wild [20]; [27]",90
same,"Plant response rating, Oat, Wild","oat, wild [20]; [28]",50
same,"Plant response rating, Wheat",wheat [21]; [27],90
same,"Plant response rating, Wheat",wheat [21]; [28],80
same,"Pigweed, Palmer plant response rating","pigweed, palmer [22]; 500 g ai/ha",100
same,"Pigweed, Palmer plant response rating","pigweed, palmer [22]; Test C, 125 g ai/ha",10
same,Blackgrass plant response rating,blackgrass [23]; 500 g ai/ha,50
same,Blackgrass plant response rating,"blackgrass [23]; Test C, 125 g ai/ha",0
